Article PMC5458555, “Conformational dynamics of dynamin-like MxA revealed by single-molecule FRET” (Nature Communications, 2017)
Substitutions are numbered along the chain they refer to.

What was measured:
MxA^MO2 [1] = target: T1, MxA^MO2 (Homo sapiens, UniProt P20591, A149C/C322K/C336Q/C42S/C52S/M527D/S634C); assay: isothermal titration calorimetry; assay type: binding; settings: read-out: equilibrium dissociation constant
T1 construct: gene MX1; monomeric full-length-type MxA (M527D) with solvent-exposed cysteines replaced; N-terminal His6-PreScission tag cut, E. coli Rosetta (DE3); SEC peak ~70 kDa
T1 sequence (P20591 1-662 C42S/C52S/A149C/C322K/C336Q/M527D/S634C): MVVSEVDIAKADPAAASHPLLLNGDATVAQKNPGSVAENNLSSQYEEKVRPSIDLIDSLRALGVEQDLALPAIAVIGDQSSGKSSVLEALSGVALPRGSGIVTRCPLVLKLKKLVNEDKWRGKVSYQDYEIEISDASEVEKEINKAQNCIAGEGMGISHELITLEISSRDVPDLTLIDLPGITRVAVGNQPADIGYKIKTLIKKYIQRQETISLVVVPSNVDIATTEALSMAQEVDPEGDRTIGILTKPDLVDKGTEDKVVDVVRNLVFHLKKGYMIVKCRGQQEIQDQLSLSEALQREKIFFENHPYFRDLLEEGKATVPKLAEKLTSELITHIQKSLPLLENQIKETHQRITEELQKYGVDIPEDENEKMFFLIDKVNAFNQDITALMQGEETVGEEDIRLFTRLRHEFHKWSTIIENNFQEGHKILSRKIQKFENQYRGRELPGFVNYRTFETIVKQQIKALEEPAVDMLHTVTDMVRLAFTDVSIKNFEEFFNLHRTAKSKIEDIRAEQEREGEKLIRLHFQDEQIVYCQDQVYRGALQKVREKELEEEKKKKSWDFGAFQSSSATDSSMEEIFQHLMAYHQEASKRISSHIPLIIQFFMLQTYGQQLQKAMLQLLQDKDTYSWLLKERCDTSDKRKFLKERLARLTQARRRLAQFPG
Method: (§1) isothermal titration calorimetry on MxA^MO2 | The equilibrium dissociation constants for MxA^MO2-AS and MxA^MO2-RR to GDP and GMPPCP were determined

MxA^MO2 [2] = target: T2, MxA^MO2 (Homo sapiens, UniProt P20591, C322K/C336Q/C42S/C52S/M527D/R352C/R500C); assay: isothermal titration calorimetry; assay type: binding; settings: read-out: equilibrium dissociation constant
T2 construct: gene MX1; monomeric full-length-type MxA (M527D) with solvent-exposed cysteines replaced; N-terminal His6-PreScission tag cut, E. coli Rosetta (DE3); SEC peak ~70 kDa
T2 sequence (P20591 1-662 C42S/C52S/C322K/C336Q/R352C/R500C/M527D): T1 sequence (P20591 1-662 C42S/C52S/A149C/C322K/C336Q/M527D/S634C) with C149A, R352C, R500C, C634S
Method: as §1

| Compound | Kd (MxA^MO2 [1]) | Kd (MxA^MO2 [2]) |
| --- | --- | --- |
| Nc1nc2c(ncn2[C@@H]2O[C@H](COP(=O)(O)OP(=O)(O)O)[C@@H](O)[C@H]2O)c(=O)[nH]1 [GDP] | 42.6 ± 0.14 µM | 26.3 ± 0.03 µM |
| Nc1nc(O)c2ncn([C@@H]3O[C@H](COP(=O)(O)OP(=O)(O)C[P+]([O-])(O)O)[C@@H](O)[C@H]3O)c2n1 [GMPPCP, guanosine-5′-[(β,γ)-methyleno]triphosphate] | 30 ± 0.003 µM | 14.7 ± 0.13 µM |
